Source: patent publication US9469650B2, “Melampomagnolide B derivatives” (BOARD OF TRUSTEES OF THE UNIVERSITY OF ARKANSAS, priority 2013, dated 2016)

Columns and labels:
[1] = system: MDA-MB-435; assay: panel of 60 human tumor cell lines, growth inhibition (Melanoma); conditions: MDA-MB-435; NCI five dose
[2] = system: COLO 205; assay: panel of 60 human tumor cell lines, growth inhibition (Colon Cancer); conditions: COLO 205
[3] = system: PC-3; assay: panel of 60 human tumor cell lines, growth inhibition (Prostate Cancer); conditions: PC-3
[4] = system: NCI-H226; assay: panel of 60 human tumor cell lines, growth inhibition (Non-Small Cell Lung Cancer); conditions: NCI-H226
[5] = system: NCI-H23; assay: as above; conditions: NCI-H23
[6] = system: NCI-H460; assay: as above; conditions: NCI-H460
[7] = system: ACHN; assay: panel of 60 human tumor cell lines, growth inhibition (Renal Cancer)
[8] = system: SN12C; assay: as above
[9] = system: KM12; assay: panel of 60 human tumor cell lines, growth inhibition (Colon Cancer); conditions: KM12
[10] = system: MDA-MB-231/ATCC; assay: panel of 60 human tumor cell lines, growth inhibition (Breast Cancer); conditions: MDA-MB-231/ATCC

For C=C1C(=O)O[C@H]2[C@H]1CC/C(COC(=O)CCC(=O)N1CCC(C)CC1)=C\CC[C@@]1(C)O[C@@H]21 [JVM 2-70], the TGI [1] was 2.03E−5, the “Percent Growth” value ([2]; Log10 Concentration −4.0) was −88% and the “Percent Growth” value ([2]; Log10 Concentration −5.0) was −11%. For the same molecule, the “Percent Growth” value ([2]; Log10 Concentration −6.0) was 104%, the “Percent Growth” value ([2]; Log10 Concentration −7.0) was 107% and the “Percent Growth” value ([2]; Log10 Concentration −8.0) was 94%. The GI50 ([2]; NCI five dose) was 2.94 µM, the TGI ([2]; NCI five dose) was 8.03E−6 and the “Percent Growth” value ([3]; Log10 Concentration −4.0) was −72%. The “Percent Growth” value ([3]; Log10 Concentration −5.0) was 66%, the “Percent Growth” value ([3]; Log10 Concentration −6.0) was 94% and the “Percent Growth” value ([3]; Log10 Concentration −7.0) was 93%. For the same molecule, the “Percent Growth” value ([3]; Log10 Concentration −8.0) was 94%, the GI50 ([3]; NCI five dose) was 13 µM and the TGI ([3]; NCI five dose) was 3.00E−5. For the same molecule, the “Percent Growth” value ([4]; Log10 Concentration −4.0) was −59%, the “Percent Growth” value ([4]; Log10 Concentration −5.0) was 19% and the “Percent Growth” value ([4]; Log10 Concentration −6.0) was 87%. For the same molecule, the “Percent Growth” value ([4]; Log10 Concentration −7.0) was 93%, the “Percent Growth” value ([4]; Log10 Concentration −8.0) was 92% and the GI50 ([4]; NCI five dose) was 3.51 µM. The TGI ([4]; NCI five dose) was 1.75E−5, the “Percent Growth” value ([5]; Log10 Concentration −4.0) was −70% and the “Percent Growth” value ([5]; Log10 Concentration −5.0) was 33%. For the same molecule, the “Percent Growth” value ([5]; Log10 Concentration −6.0) was 94%, the “Percent Growth” value ([5]; Log10 Concentration −7.0) was 101% and the “Percent Growth” value ([5]; Log10 Concentration −8.0) was 95%. The GI50 ([5]; NCI five dose) was 5.24 µM, the TGI ([5]; NCI five dose) was 2.09E−5 and the “Percent Growth” value ([6]; Log10 Concentration −4.0) was −57%. For the same molecule, the “Percent Growth” value ([6]; Log10 Concentration −5.0) was 77%, the “Percent Growth” value ([6]; Log10 Concentration −6.0) was 99% and the “Percent Growth” value ([6]; Log10 Concentration −7.0) was 101%. The “Percent Growth” value ([6]; Log10 Concentration −8.0) was 100%, the GI50 ([6]; NCI five dose) was 16 µM and the TGI ([6]; NCI five dose) was 3.76E−5. The “Percent Growth” value ([7]; Log10 Concentration −4.0) was −79%, the “Percent Growth” value ([7]; Log10 Concentration −5.0) was 2% and the “Percent Growth” value ([7]; Log10 Concentration −6.0) was 85%. For the same molecule, the “Percent Growth” value ([7]; Log10 Concentration −7.0) was 102%, the “Percent Growth” value ([7]; Log10 Concentration −8.0) was 98% and the GI50 ([7]; NCI five dose) was 2.64 µM. For the same molecule, the TGI ([7]; NCI five dose) was 1.05E−5, the “Percent Growth” value ([8]; Log10 Concentration −4.0) was −82% and the “Percent Growth” value ([8]; Log10 Concentration −5.0) was 30%. For the same molecule, the “Percent Growth” value ([8]; Log10 Concentration −6.0) was 92%, the “Percent Growth” value ([8]; Log10 Concentration −7.0) was 93% and the “Percent Growth” value ([8]; Log10 Concentration −8.0) was 97%. For the same molecule, the GI50 ([8]; NCI five dose) was 4.8 µM, the TGI ([8]; NCI five dose) was 1.86E−5 and the “Percent Growth” value ([9]; Log10 Concentration −4.0) was −87%. The “Percent Growth” value ([9]; Log10 Concentration −5.0) was 62%, the “Percent Growth” value ([9]; Log10 Concentration −6.0) was 98% and the “Percent Growth” value ([9]; Log10 Concentration −7.0) was 102%. The “Percent Growth” value ([9]; Log10 Concentration −8.0) was 102%, the GI50 ([9]; NCI five dose) was 12.1 µM and the TGI ([9]; NCI five dose) was 2.61E−5. The “Percent Growth” value ([10]; Log10 Concentration −4.0) was −85%, the “Percent Growth” value ([10]; Log10 Concentration −5.0) was 41% and the “Percent Growth” value ([10]; Log10 Concentration −6.0) was 102%. The “Percent Growth” value ([10]; Log10 Concentration −7.0) was 97%, the “Percent Growth” value ([10]; Log10 Concentration −8.0) was 105% and the GI50 ([10]; NCI five dose) was 7.13 µM. It also gave a TGI ([10]; NCI five dose) of 2.12E−5.
